Laboratory results taken from PubChem BioAssay (NCI).
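Each compound was tested at five concentrations against cells in 96-well plates for 48 hours. GI50 marks 50% less growth. The concentration for full growth arrest is given as TGI.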

Tests used:
Experiment in all cases: growth of human tumour cells (NCI), 48 h; in the data active = GI50 below about 0.43 µM; inactive = the rest
SK-MEL-28 melanoma = tested on: SK-MEL-28 melanoma
SR leukemia = tested on: SR leukemia
SK-OV-3 ovarian = tested on: SK-OV-3 ovarian
K-562 leukemia = tested on: K-562 leukemia
SF-268 CNS = tested on: SF-268 CNS
SF-539 CNS = tested on: SF-539 CNS
HL-60(TB) leukemia = tested on: HL-60(TB) leukemia
SW-620 colon = tested on: SW-620 colon
HCC-2998 colon = tested on: HCC-2998 colon
T-47D breast = tested on: T-47D breast

Cc1cccc(C)c1NC(=O)/C(=N/NC(N)=S)C(C)C(=O)c1ccc(Cl)cc1 (centres undefined)
> 100 µM: TGI (SK-MEL-28 melanoma) | TGI (SR leukemia) | TGI (SK-OV-3 ovarian) | TGI (K-562 leukemia) | TGI (SF-268 CNS) | TGI (SF-539 CNS) | TGI (HL-60(TB) leukemia) | TGI (SW-620 colon) | TGI (HCC-2998 colon)

CC(=O)OC12C=C(C)C(C(C)C1)C1C(=O)N(CCN3CCOCC3)C(=O)C12 (centres undefined)
inactive: GI50 (T-47D breast) > 100 µM | GI50 (SK-OV-3 ovarian) > 100 µM | GI50 (K-562 leukemia) > 100 µM | GI50 (SF-268 CNS) > 100 µM | GI50 (SF-539 CNS) > 100 µM | GI50 (HL-60(TB) leukemia) > 100000 nM | GI50 (SW-620 colon) > 100 µM | GI50 (HCC-2998 colon) > 100 µM
> 100 µM: TGI (T-47D breast) | TGI (SK-OV-3 ovarian) | TGI (K-562 leukemia) | TGI (SF-268 CNS) | TGI (SF-539 CNS) | TGI (HL-60(TB) leukemia) | TGI (SW-620 colon) | TGI (HCC-2998 colon)

CCOC(=O)C1C(=S)NC(=O)C1C#N (centres undefined)
> 100 µM: TGI (SK-MEL-28 melanoma) | TGI (SK-OV-3 ovarian) | TGI (K-562 leukemia) | TGI (SF-268 CNS) | TGI (SF-539 CNS) | TGI (HL-60(TB) leukemia) | TGI (SW-620 colon) | TGI (HCC-2998 colon)

COc1cc2c3c(n(C)c(=O)c2cc1OC)-c1cc2c(cc1/C3=C\CCCCN1C(=O)c3ccccc3C1=O)OCO2
58.7 µM: TGI (HCC-2998 colon)
inactive: GI50 (SK-MEL-28 melanoma) > 100 µM | GI50 (SK-OV-3 ovarian) 13.5 µM | GI50 (K-562 leukemia) 23.4 µM | GI50 (SF-268 CNS) 9.12 µM | GI50 (SW-620 colon) 7 µM | GI50 (HCC-2998 colon) 12.2 µM
45.7 µM: TGI (SK-OV-3 ovarian)
> 100 µM: TGI (SK-MEL-28 melanoma) | TGI (K-562 leukemia) | TGI (SF-268 CNS) | TGI (SW-620 colon)

NNC(=O)CS(=O)(=O)Nc1ncccn1
> 100 µM: TGI (SK-MEL-28 melanoma) | TGI (T-47D breast) | TGI (SK-OV-3 ovarian) | TGI (K-562 leukemia) | TGI (SF-268 CNS) | TGI (SF-539 CNS) | TGI (SW-620 colon)

O=C(NC1CCCCC1)NS(=O)(=O)c1ccc2c(c1)CCC2
> 100 µM: TGI (SK-MEL-28 melanoma) | TGI (SR leukemia) | TGI (SK-OV-3 ovarian) | TGI (K-562 leukemia) | TGI (SF-268 CNS) | TGI (SF-539 CNS) | TGI (HL-60(TB) leukemia) | TGI (SW-620 colon) | TGI (HCC-2998 colon)

COc1cc(N2C(=O)[C@H](O)C2c2ccc(SC)cc2)cc(OC)c1OC (some centres undefined)
> 100 µM: TGI (SR leukemia) | TGI (SK-OV-3 ovarian) | TGI (K-562 leukemia) | TGI (SW-620 colon)
active: GI50 (SR leukemia) < 10 nM | GI50 (SK-OV-3 ovarian) 0.0142 µM | GI50 (K-562 leukemia) < 0.01 µM | GI50 (SF-268 CNS) < 0.01 µM | GI50 (SF-539 CNS) < 0.01 µM | GI50 (HL-60(TB) leukemia) 10.6 nM | GI50 (SW-620 colon) < 0.01 µM | GI50 (HCC-2998 colon) 0.0238 µM
0.0448 µM: TGI (HL-60(TB) leukemia)
65.3 µM: TGI (HCC-2998 colon)
59.3 µM: TGI (SF-268 CNS)

O=C1c2c(c3c4ccccc4[nH]c3c3ccc4ccccc4c23)C(=O)N1CCN1CCNCC1
inactive: GI50 (SK-MEL-28 melanoma) 1.68 µM | GI50 (SR leukemia) 598 nM | GI50 (SK-OV-3 ovarian) 1.86 µM | GI50 (K-562 leukemia) 1.44 µM | GI50 (SF-268 CNS) 1.86 µM | GI50 (SF-539 CNS) 1.68 µM | GI50 (HL-60(TB) leukemia) 1610 nM | GI50 (SW-620 colon) 1.49 µM | GI50 (HCC-2998 colon) 1.63 µM
3.58 µM: TGI (SK-OV-3 ovarian)
3.06 µM: TGI (SF-539 CNS)
3.16 µM: TGI (SW-620 colon)
3.09 µM: TGI (K-562 leukemia)
3.1 µM: TGI (SK-MEL-28 melanoma)
3.5 µM: TGI (HL-60(TB) leukemia)
4.03 µM: TGI (SF-268 CNS)
3.15 µM: TGI (HCC-2998 colon)
2.63 µM: TGI (SR leukemia)

Cc1c(/C=N/N=C/c2[nH]c(C(=O)OC(C)(C)C)c(C)c2C)[nH]c(C(=O)OC(C)(C)C)c1C
> 100 µM: TGI (SR leukemia) | TGI (SK-OV-3 ovarian) | TGI (K-562 leukemia) | TGI (SF-268 CNS) | TGI (SF-539 CNS) | TGI (HL-60(TB) leukemia) | TGI (SW-620 colon) | TGI (HCC-2998 colon)

COc1cccc(OC(=O)c2ccc(C(F)(F)F)nc2Nc2cc(Cl)ccc2C)c1
9.36 µM: TGI (K-562 leukemia)
inactive: GI50 (SK-MEL-28 melanoma) 9.26 µM | GI50 (T-47D breast) 2.82 µM | GI50 (SK-OV-3 ovarian) 11.1 µM | GI50 (K-562 leukemia) 3.13 µM | GI50 (SF-268 CNS) 4.38 µM | GI50 (SF-539 CNS) 8.75 µM | GI50 (SW-620 colon) 5.31 µM
50.7 µM: TGI (SW-620 colon)
32 µM: TGI (SF-539 CNS)
> 100 µM: TGI (SK-MEL-28 melanoma) | TGI (T-47D breast) | TGI (SF-268 CNS)
80.7 µM: TGI (SK-OV-3 ovarian)

O=C1C(=C([O-])c2ccccc2)C(=O)c2ccccc21.O=C1C(=C([O-])c2ccccc2)C(=O)c2ccccc21.[Fe+2]
inactive: GI50 (SK-MEL-28 melanoma) > 100 µM | GI50 (SK-OV-3 ovarian) > 100 µM | GI50 (K-562 leukemia) 84.9 µM | GI50 (SF-268 CNS) > 100 µM | GI50 (SF-539 CNS) > 100 µM | GI50 (HL-60(TB) leukemia) 80900 nM | GI50 (SW-620 colon) > 100 µM | GI50 (HCC-2998 colon) 69.5 µM
> 100 µM: TGI (SK-MEL-28 melanoma) | TGI (SK-OV-3 ovarian) | TGI (K-562 leukemia) | TGI (SF-268 CNS) | TGI (SF-539 CNS) | TGI (HL-60(TB) leukemia) | TGI (SW-620 colon) | TGI (HCC-2998 colon)

CC#CCC1CCC(OCC)=CC1=O (centres undefined)
> 100 µM: TGI (SK-MEL-28 melanoma) | TGI (SR leukemia) | TGI (SK-OV-3 ovarian) | TGI (K-562 leukemia) | TGI (SF-268 CNS) | TGI (SF-539 CNS) | TGI (HL-60(TB) leukemia) | TGI (SW-620 colon)

CO/N=C(\COc1ccc2c(c1)[nH]c1ccccc12)c1ccc(F)cc1
inactive: GI50 (SK-MEL-28 melanoma) > 100 µM | GI50 (T-47D breast) > 100 µM | GI50 (SK-OV-3 ovarian) 28.7 µM | GI50 (SF-268 CNS) > 100 µM | GI50 (SF-539 CNS) > 100 µM | GI50 (SW-620 colon) > 100 µM | GI50 (HCC-2998 colon) > 100 µM
> 100 µM: TGI (SK-MEL-28 melanoma) | TGI (T-47D breast) | TGI (SK-OV-3 ovarian) | TGI (SF-268 CNS) | TGI (SF-539 CNS) | TGI (SW-620 colon) | TGI (HCC-2998 colon)
